In US8883778B2, “Cyclic inhibitors of 11 beta-hydroxysteroid dehydrogenase 1” (Vitae Pharmaceuticals, Inc., priority 2009, dated 2014) one finds IC50 and inhibition data, which are given here for eleven molecules.

By IC50 is commonly meant the concentration that inhibits the measured activity by half. A higher IC50 goes with a need for much substance. By inhibition is commonly meant the change of the read-out against control, counted positive when it falls.

In test [1] the target is T1, 11β-HSD1 (Homo sapiens, UniProt P28845). Nature of the test: In vitro inhibition of 11β-HSD1 with HTRF technology, cortisol generated by human liver microsomes. It counts as biochemical. On the set-up: detecting cortisol generated from cortisterone by human liver microsomes; from tissue; host or cells: human liver microsomes. The conditions noted are these: 1 hour at 37° C., cortisone 80 nM. On the procedure:
Briefly, compounds were incubated for 1 hour at 37° C. in Tris buffer (20 mM tris, 5 mM EDTA, pH 6.0) containing NADPH (200 μM) and cortisone (80 nM). Cortisol generated in the reaction is then detected with a competitive immunoassay, involving two HTRF conjugates: cortisol linked to XL665 and anti-cortisol antibody labeled with Europium cryptate. The incubation period for detection reaction was typically 2 hours. The amount of cortisol was determined by reading the time-resolved fluorescence of the wells (Ex 320/75 nm; Em 615/8.5 nm and 665/7.5 nm). The ratio of the two emission signals was then calculated (Em665*10000/Em615). […] Each assay also contained a calibration curve with cortisol to transform the fluorescent data into cortisol concentrations. Percent inhibition of each compound was determined relative to the carbenoxolone signal.

Test [2] addresses T1, 11β-HSD1. Nature of the test: Inhibition of a microsomal preparation of 11β-HSD1, scintillation proximity assay. It counts as biochemical. On the set-up: expressed in transfected cells; host or cells: CHO cells (microsomes). The conditions noted are these: microsomes from CHO cells overexpressing human 11β-HSD1; for inhibition at 0.1 µM: at 100 nM. The procedure:
All reactions were carried out at rt in 96 well clear flexible PET Microbeta plates (PerkinElmer). […] After a 10 minute pre-incubation, 50 μL of enzyme solution containing microsomes isolated from CHO cells overexpressing human 11β-HSD1 (10-20 μg/ml of total protein) was added, and the plates were incubated for 90 minutes at rt. The reaction was stopped by adding 50 μl of the SPA beads suspension containing 10 μM 18β-glycyrrhetinic acid, 5 mg/ml protein A coated YSi SPA beads (GE Healthcare) and 3.3 μg/ml of anti-cortisol antibody (East Coast Biologics) in Superblock buffer (Bio-Rad). The plates were shaken for 120 minutes at rt, and the SPA signal corresponding to [^3H]cortisol was measured on a Microbeta plate reader.

T1 sequence (P28845 whole entry): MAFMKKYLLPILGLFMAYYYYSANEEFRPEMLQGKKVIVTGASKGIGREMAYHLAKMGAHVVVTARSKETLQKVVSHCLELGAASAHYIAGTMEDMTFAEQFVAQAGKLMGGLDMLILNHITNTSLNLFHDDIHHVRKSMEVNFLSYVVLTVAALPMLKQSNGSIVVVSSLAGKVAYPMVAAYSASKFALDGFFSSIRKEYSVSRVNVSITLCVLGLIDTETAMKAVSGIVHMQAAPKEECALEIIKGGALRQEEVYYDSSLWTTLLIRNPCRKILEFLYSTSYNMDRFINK

`C[C@@H](c1ccc(C#Cc2ccn(C)c(=O)c2)cc1)N1CC[C@](CC(C)(C)O)(c2ccccc2)OC1=O` [Example 30, (S)-6-(2-Hydroxy-2-methyl-propyl)-3-{(S)-1-[4-(1-methyl-2-oxo-1,2-dihydro-pyridin-4-ylethynyl)-phenyl]ethyl}-6-phenyl-[1,3]oxazinan-2-one] had a concentration for half-maximal inhibition (IC50) in test [1] of 29 nM.

In the case of `C[C@@H](c1ccc(C#Cc2ccc(=O)n(C)c2)cc1)N1CC[C@](CC(C)(C)O)(c2ccccc2)OC1=O` [Example 31, (S)-6-(2-Hydroxy-2-methyl-propyl)-3-{(S)-1-[4-(1-methyl-6-oxo-1,6-dihydro-pyridin-3-ylethynyl)-phenyl]ethyl}-6-phenyl-[1,3]oxazinan-2-one], in test [1], the IC50 was determined as 30 nM.

As for `C[C@@H](c1ccc(C#CC(C)(C)C(=O)NC2CC2)cc1)N1CC[C@](CC(C)(C)O)(c2ccccc2)OC1=O` [Example 7, N-cyclopropyl-4-(4-((S)-1-((S)-6-(2-hydroxy-2-methylpropyl)-2-oxo-6-phenyl-1,3-oxazinan-3-yl)ethyl)phenyl)-2,2-dimethylbut-3-ynamide], in test [2], the inhibition at 0.1 µM is 93.5% and inhibition was half-maximal at 5.2 nM (IC50).

In the case of `C[C@@H](c1ccc(C#Cc2ccccn2)cc1)N1CC[C@](CC(C)(C)O)(c2ccccc2)OC1=O` [Example 9, (S)-6-(2-hydroxy-2-methylpropyl)-6-phenyl-3-((S)-1-(4-(pyridin-2-ylethynyl)phenyl)ethyl)-1,3-oxazinan-2-one], in test [2], the inhibition at 0.1 µM came out at 96.6% and the concentration for half-maximal inhibition (IC50) was 1 nM.

Take `C[C@@H](c1ccc(C#CC(C)(C)N)cc1)N1CC[C@](CC(C)(C)O)(c2ccccc2)OC1=O` [Example 12, (S)-3-((S)-1-(4-(3-amino-3-methylbut-1-ynyl)phenyl)ethyl)-6-(2-hydroxy-2-methylpropyl)-6-phenyl-1,3-oxazinan-2-one]: in test [2], the inhibition at 0.1 µM turned out to be 63.7% and the IC50 turned out to be 53.4 nM.

Regarding `C[C@@H](c1ccc(C#CC2(O)CCN(C)CC2)cc1)N1CC[C@](CC(C)(C)O)(c2ccccc2)OC1=O` [Example 11, (S)-3-((S)-1-(4-((4-hydroxy-1-methylpiperidin-4-yl)ethynyl)phenyl)ethyl)-6-(2-hydroxy-2-methylpropyl)-6-phenyl-1,3-oxazinan-2-one], in test [2], the inhibition at 0.1 µM was 50.5% and half-maximal inhibition (IC50) required 86.3 nM.

Take `C=C(C)C[C@]1(c2ccccc2)CCN([C@@H](C)c2ccc(C#CC(C)(C)NS(C)(=O)=O)cc2)C(=O)O1` [Example 22, N-(2-methyl-4-(4-((S)-1-((R)-6-(2-methylallyl)-2-oxo-6-phenyl-1,3-oxazinan-3-yl)ethyl)phenyl)but-3-yn-2-yl)methanesulfonamide]: in test [2], the inhibition at 0.1 µM came out at 93.6% and the concentration for half-maximal inhibition (IC50) turned out to be 1.8 nM.

As to `C[C@@H](c1ccc(C#CC(C)(C)NC(=O)C2CC2)cc1)N1CC[C@](CC(C)(C)O)(c2ccccc2)OC1=O` [Example 8, N-(4-(4-((S)-1-((S)-6-(2-hydroxy-2-methylpropyl)-2-oxo-6-phenyl-1,3-oxazinan-3-yl)ethyl)phenyl)-2-methylbut-3-yn-2-yl)cyclopropanecarboxamide], in test [2], the inhibition at 0.1 µM came to 92.2% and the IC50 worked out at 7.5 nM.

Consider `C[C@@H](c1ccc(C#Cc2cc[nH]c(=O)c2)cc1)N1CC[C@](CC(C)(C)O)(c2ccccc2)OC1=O` [Example 29, (S)-6-(2-hydroxy-2-methylpropyl)-3-((S)-1-(4-((2-oxo-1,2-dihydropyridin-4-yl)ethynyl)phenyl)ethyl)-6-phenyl-1,3-oxazinan-2-one], for which, in test [2], the inhibition at 0.1 µM was found to be 97.9% and the IC50 came to 1.4 nM.

Regarding `CNC(=O)NC(C)(C)C#Cc1ccc([C@H](C)N2CC[C@](CC(C)(C)O)(c3ccccc3)OC2=O)cc1` [Example 20, 1-(4-(4-((S)-1-((S)-6-(2-hydroxy-2-methylpropyl)-2-oxo-6-phenyl-1,3-oxazinan-3-yl)ethyl)phenyl)-2-methylbut-3-yn-2-yl)-3-methylurea], in test [2], the inhibition at 0.1 µM came to 92.2% and the IC50 was found to be 4.2 nM.

As to `COc1cc(C#Cc2ccc([C@H](C)N3CC[C@](CC(C)(C)O)(c4ccccc4)OC3=O)cc2)ccn1` [Example 28, (S)-6-(2-hydroxy-2-methylpropyl)-3-((S)-1-(4-((2-methoxypyridin-4-yl)ethynyl)phenyl)ethyl)-6-phenyl-1,3-oxazinan-2-one], in test [2], the inhibition at 0.1 µM worked out at 103% and the IC50 was determined as 1.7 nM.
